In US5532380A, “R,R,S,S-2-nitroimidazole derivatives” (Pola Chemical Industries, Inc., priority 1992, dated 1996):
In brackets after ≈: the same amount, converted by molar mass. Like-named read-outs stand apart in the source and are kept apart here.

Key:
[1] = Acute toxicity test (LD50/14), i.v. or i.p.; details: mouse, in vivo
Description: Test compounds, dissolved in physiological saline or a physiological saline solution containing 10% DMSO, were intravenously or intraperitoneally injected to ICR male mice, aged 5 weeks.

[2] = tested on: breast carcinoma cell EMT6/KU; assay: In vitro hypoxic cell sensitization effect (colony formation, gamma-ray); assay type: cell-based, Balb/c mouse; details: 1 mM test compound, EMT6/KU hypoxic cells, ratio of radiation amounts without/with compound
Protocol: The degree of the hypoxic cell radiosensitization effects of optical isomers of the present invention as compared with the racemate was studied by the in vitro assay.
Specifically, the radiosensitization effects were investigated using breast carcinoma cell EMT6/KU derived from Balb/c mouse. A hypoxic cell suspension was prepared from MEM suspension-containing EMT6/KU cells at a concentration 4×10^5 cells/ml by adding the test compound to a final concentration of 1 mM, and gently shaking it under a nitrogen gas stream containing 5% CO2 for one hour at room temperature. Gamma-ray was irradiated to the suspension and a radiation-survival rate curve was developed by the colony formation method. The sensitization rate was determined from this radiation-survival rate curve by dividing (i) the amount of radiation which decreases the survival rate of the hypoxic cells by 1% when no test compound was added by (ii) the amount of radiation which decreases the survival rate of the hypoxic cells by 1% when the test compound was added.

[3] = Dissolution test (solubility); assay type: physicochemical; details: for solubilities compared with SR-RS racemate: water and physiological saline
Protocol: Solubilities of SS, RR, SR, and RS isomers and SR-RS racemate in water and physiological saline were determined.

[4] = tested on: EMT6/KU-cancerated Balb/c mouse; assay: In vivo-in vitro hypoxic cell sensitization effect (EMT6/KU tumour-bearing mouse, gamma-ray, colony forming method); details: 200 mg/kg; 20 Gy gamma-ray 30 minutes thereafter
Protocol: The degree of the hypoxic cell radiosensitization effects of optical isomers of the present invention in in vivo-in vitro system was investigated in the same manner using the racemate as a control. Specifically, the radiosensitization effects were investigated using EMT6/KU-cancerated Balb/c mouse. 200 mg/kg of each test compound was administered and 20 Gy gamma-ray was irradiated 30 minutes thereafter. Carcinoma was extracted and treated with trypsin to prepare a cell suspension. The survival rate was determined by the colony forming method. A physiological saline solution was administered to the control.

[5] = Octanol-phosphate partition coefficient; assay type: physicochemical; details: for partitioning toward the octanol layer: octanol-phosphate, pH 7.4; for logD at 24 h: octanol/0.2 m phosphate buffer; for partition coefficient: average of 1.4 times and 0.7 times; for partition coefficient / partition coefficient at 0.7 times the solubility in octanol / partition coefficient at 1.4 times the solubility in octanol: 1440 min; for partition coefficient at 0.7 times the solubility in octanol / partition coefficient at 1.4 times the solubility in octanol: octanol/0.2 mol phosphate buffer pH 7.4, 20° C.
Protocol: The partition coefficient in the octanol-phosphate buffer solution system, which is indicative of the degree of orientation toward nerve tissues, was determined. […] To the weighed samples 10 ml of 0.2 mol phosphate buffer (pH 7.4), defined in the Pharmacopoeia of Japan, and 10 ml of octanol were added. The mixtures were shaken for 24 hours at 20° C. under light shielding. Octanol and phosphate layers were partitioned to determine the absorbance of each layer. […] The partition coefficients obtained were averaged to determine the partition coefficient of each sample.

male ICR mice = details: mouse, in vivo, iv
Protocol: The acute toxicity was determined using groups of male ICR mice, aged 5 weeks, each group consisting of five mice. Test compounds were dissolved in physiological saline and administered by injection through caudal vein. The death-survival determination was made 14 days after the administration.

hypoxic cell = details: cited from earlier work
[6] = physiological saline, read-out: Solubility in physiological saline
[7] = water, read-out: Solubility in water
[8] = pH 7.4, average of 1.4 times and 0.7 times, pH 7.4, 20° C., read-out: partition coefficient (converted)
[9] = pH 7.4, octanol/0.2 mol phosphate buffer pH 7.4, 20° C., 24 hours, 0.7 times, read-out: partition coefficient at 0.7 times the solubility in octanol (converted)
[10] = pH 7.4, octanol/0.2 mol phosphate buffer pH 7.4, 20° C., 24 hours, 1.4 times, read-out: partition coefficient at 1.4 times the solubility in octanol (converted)
[11] = intravenously or intraperitoneally, ICR male mice, 14 days

O=[N+]([O-])c1nccn1CO[C@@H](CO)[C@@H](O)CO [SS isomer, (1'S,2'S)-1-[(2', 3'-dihydroxy-1'-hydroxymethyl)propoxy]methyl-2-nitroimidazole]
LD50 at 336 h [1]: 6000 mg/kg | Hypoxic cell sensitization rate [2]: 1.8 | solubility [3, 6]: 820 mg/mL (≈ 3320 mM) | solubilities compared with SR-RS racemate [3]: remarkably larger than that of SR-RS racemate | solubility [3, 7]: 850 mg/mL (≈ 3440 mM) | Hypoxic cell survival rate [4]: 0.07% | partitioning toward the octanol layer [5]: less partitioned toward the octanol layer | logD at 24 h [5, 8]: -1.55 | logD at 24 h [5, 9]: -1.51 | logD at 24 h [5, 10]: -1.59 | safety compared with other optically active isomers (male ICR mice): better safety than other optically active isomers

O=[N+]([O-])c1nccn1CO[C@H](CO)[C@@H](O)CO [RS isomer]
solubilities compared with SR-RS racemate [3]: remarkably larger than that of SR-RS racemate

O=[N+]([O-])c1nccn1CO[C@H](CO)[C@@H](O)CO (relative stereo) [SR-RS racemate, (1'RS,2'SR)-1-[(2',3'-dihydroxy-1' -hydroxymethyl)propoxy]methyl-2-nitroimidazole]
hypoxic cell radiosensitization effect compared with misonidazole (hypoxic cell): about the same degree of hypoxic cell radiosensitization effect as misonidazole | Hypoxic cell sensitization rate [2]: 1.7 | solubility [3, 6]: 40 mg/mL (≈ 162 mM) | solubility [3, 7]: 40 mg/mL (≈ 162 mM) | Hypoxic cell survival rate [4]: 0.08% | logD at 24 h [5, 8]: -1.33 | logD at 24 h [5, 9]: -1.24 | logD at 24 h [5, 10]: -1.43

O=[N+]([O-])c1nccn1CO[C@@H](CO)[C@H](O)CO [SR isomer]
solubilities compared with SR-RS racemate [3]: remarkably larger than that of SR-RS racemate

O=[N+]([O-])c1nccn1CO[C@@H](CO)[C@H](O)CO [Compound (4)]
LD50 at 336 h [1, 11]: 5900 mg/kg

O=[N+]([O-])c1nccn1CO[C@H](CO)[C@H](O)CO [RR isomer, (1'R,2'R)-1-[(2', 3'-dihydroxy-1'-hydroxymethyl)propoxy]methyl-2-nitroimidazole]
LD50 at 336 h [1]: 6000 mg/kg | Hypoxic cell sensitization rate [2]: 1.8 | solubility [3, 6]: 870 mg/mL (≈ 3520 mM) | solubilities compared with SR-RS racemate [3]: remarkably larger than that of SR-RS racemate | solubility [3, 7]: 740 mg/mL (≈ 2990 mM) | Hypoxic cell survival rate [4]: 0.07% | partitioning toward the octanol layer [5]: less partitioned toward the octanol layer | logD at 24 h [5, 8]: -1.6 | logD at 24 h [5, 9]: -1.59 | logD at 24 h [5, 10]: -1.62

O=[N+]([O-])c1nccn1CO[C@H](CO)[C@@H](O)CO [Compound (3)]
LD50 at 336 h [1, 11]: 5900 mg/kg

COCC(O)Cn1ccnc1[N+](=O)[O-] (stereo not drawn) [Misonidazole, reference compound]
logD at 24 h [5, 8]: -0.409 | logD at 24 h [5, 9]: -0.397 | logD at 24 h [5, 10]: -0.423

O=[N+]([O-])c1nccn1COC(CO)C(O)CO (single isomer, unassigned) [RS or SR isomer (rotation(-))]
Hypoxic cell sensitization rate [2]: 1.7 | Solubility in physiological saline ([3]; physiological saline): 0.06 g/ml | Hypoxic cell survival rate [4]: 0.08% | partition coefficient ([5]; pH 7.4, 20° C.): 0.053 | partition coefficient at 0.7 times the solubility in octanol ([5]; 24 hours, 0.7 times): 0.058 | partition coefficient at 1.4 times the solubility in octanol ([5]; 24 hours, 1.4 times): 0.048

O=[N+]([O-])c1nccn1COC(CO)C(O)CO (single isomer, unassigned) [RS or SR isomer (rotation(+))]
Hypoxic cell sensitization rate [2]: 1.7 | solubility [3, 6]: 70 mg/mL (≈ 283 mM) | Hypoxic cell survival rate [4]: 0.08% | partition coefficient ([5]; pH 7.4, 20° C.): 0.056 | partition coefficient at 0.7 times the solubility in octanol ([5]; 24 hours, 0.7 times): 0.059 | partition coefficient at 1.4 times the solubility in octanol ([5]; 24 hours, 1.4 times): 0.053
